Source: patent US20150351401A1 (priority 2012, published 2015)

System: Puccinia recondita
Experiment: CG1 Preventative control of brown rust on wheat caused by Puccinia recondita (Puccrt P1), greenhouse
Type: in vivo
Conditions: 75 ppm spray, wheat seedlings, inoculated next day; % diseased leaf area; untreated control 90
Description: The Spray Solutions were Prepared in Several Steps:
The stock solution were prepared: a mixture of acetone and/or dimethylsulfoxide and the wetting agent/emulsifier Wettol, which is based on ethoxylated alkylphenoles, in a relation (volume) solvent-emulsifier of 99 to 1 was added to the initial weight of the compound to give a total of 5 ml. Water was then added to total volume of 100 ml. This stock solution was diluted with the described solvent-emulsifier-water mixture to the given concentration.
CG1 Preventative Control of Brown Rust on Wheat Caused by Puccinia recondita (Puccrt P1)
The first two developed leaves of pot-grown wheat seedling were sprayed to run-off with an aqueous suspension, containing the concentration of active ingredient or their mixture as described below. The next day the plants were inoculated with spores of Puccinia recondita. To ensure the success the artificial inoculation, the plants were transferred to a humid chamber without light and a relative humidity of 95 to 99% and 20 to 24° C. for 24 h. Then the trial plants were cultivated for 6 days in a greenhouse chamber at 20-24° C. and a relative humidity between 65 and 70%. The extent of fungal attack on the leaves was visually assessed as % diseased leaf area.

Point of comparison: `OC(Cc1ccccc1Cl)(Cn1cncn1)C1(Cl)CC1` (stereo not drawn) [reference compound], “Disease (%) at 75 ppm Puccrt P1” value 50%. Against it:
- OC(Cc1ccc(-c2ccc(Cl)cc2)cc1Cl)(Cn1cncn1)C1(Cl)CC1 (stereo not drawn) [I-3, 1-[2-chloro-4-(4-chlorophenyl)phenyl]-2-(1-chlorocyclopropyl)-3-(1,2,4-triazol-1-yl)propan-2-ol] — lower, 20%
- OC(Cc1ccc(Oc2ccc(Cl)cc2)cc1Cl)(Cn1cncn1)C1(Cl)CC1 (stereo not drawn) [I-4] — lower, 20%

System: Pyricularia oryzae
Experiment: not given
Type: cell-based
Conditions: comparison CM1, 7 days after inoculation

Point of comparison: `OC(Cc1ccc(Oc2ccc(Cl)cc2)cc1Cl)(Cn1ncnc1S)C1(Cl)CC1` (stereo not drawn) [I-5], “Growth (%) at 8 ppm Pyrior” value 0%. Against it:
- OC(Cc1ccc(-c2ccc(Cl)cc2)cc1Cl)(Cn1ncnc1S)C1(Cl)CC1 (stereo not drawn) [I-6] — the same, 0%
- OC(Cc1ccccc1Cl)(Cn1ncnc1S)C1(Cl)CC1 (stereo not drawn) [drawing 129, reference compound] — higher, 41%

Same assay, conditions: comparison CM2, 7 days after inoculation

Point of comparison: `OC(Cc1ccccc1Cl)(Cn1ncnc1S)C1(Cl)CC1` (stereo not drawn) [drawing 135, reference compound], “Growth (%) at 8 ppm Pyrior” value 41%. Against it:
- OC(Cc1ccc(Oc2ccc(Cl)cc2)cc1Cl)(Cn1ncnc1S)C1(Cl)CC1 (stereo not drawn) [I-5] — lower, 0%
- OC(Cc1ccc(Oc2ccc(Cl)cc2)cc1Cl)(Cn1cncn1)C1CC1 (stereo not drawn) [I-7, 1-[2-Chloro-4-(4-chlorophenoxyl)phenyl]-2-cyclopropyl-3-(1,2,4-triazol-1-yl)propan-2-ol] — lower, 0%
